Laboratory results from ChEMBL document CHEMBL2440076, “New triarylpyrazoles as broad-spectrum anticancer agents: design, synthesis, and biological evaluation” (Eur J Med Chem, 2013).
pIC50: −log10 of the molar value.

What was measured:
SF-539 = assay: Growth inhibition of human SF539 cells assessed as cell growth at 10 uM after 48 hrs by sulforhodamine B assay; assay type: functional; conditions: SF-539, 48 h, read-out: Activity
HCT-116 = assay: Growth inhibition of human HCT116 cells after 48 hrs by sulforhodamine B assay; assay type: functional; conditions: HCT-116, 48 h; for CC50: read-out: LC50 (the source's name)
RPMI-8226 = assay: Growth inhibition of human RPMI8226 cells assessed as cell growth at 10 uM after 48 hrs by sulforhodamine B assay; assay type: functional; conditions: RPMI-8226, 48 h, read-out: Activity
MOLT-4 [1] = assay: Growth inhibition of human MOLT4 cells after 48 hrs by sulforhodamine B assay; assay type: functional; conditions: MOLT-4, 48 h; for CC50: read-out: LC50 (the source's name)
MOLT-4 [2] = assay: Growth inhibition of human MOLT4 cells assessed as cell growth at 10 uM after 48 hrs by sulforhodamine B assay; assay type: functional; conditions: MOLT-4, 48 h, read-out: Activity
[3] = Growth inhibition of human NCI-ADR-RES cells after 48 hrs by sulforhodamine B assay; assay type: functional; conditions: for CC50: read-out: LC50 (the source's name)
[4] = Growth inhibition of human HCC2998 cells assessed as cell growth at 10 uM after 48 hrs by sulforhodamine B assay; assay type: functional; conditions: HCC 2998, 48 h, read-out: Activity
HCT-15 [5] = assay: Growth inhibition of human HCT15 cells assessed as cell growth at 10 uM after 48 hrs by sulforhodamine B assay; assay type: functional; conditions: HCT-15, 48 h, read-out: Activity
MDA-MB-468 = assay: Growth inhibition of human MDA-MB-468 cells assessed as cell growth at 10 uM after 48 hrs by sulforhodamine B assay; assay type: functional; conditions: MDA-MB-468, 48 h, read-out: Activity
NCI-H226 = assay: Growth inhibition of human NCI-H226 cells after 48 hrs by sulforhodamine B assay; assay type: functional; conditions: NCI-H226, 48 h; for CC50: read-out: LC50 (the source's name)
[6] = Growth inhibition of human Hs 578T cells after 48 hrs by sulforhodamine B assay; assay type: functional; conditions: for CC50: read-out: LC50 (the source's name)
HL-60(TB) = assay: Growth inhibition of human HL-60(TB) cells assessed as cell growth at 10 uM after 48 hrs by sulforhodamine B assay; assay type: functional; conditions: HL-60, 48 h, read-out: Activity
MDA-MB-435 [7] = assay: Growth inhibition of human MDA-MB-435 cells assessed as cell growth at 10 uM after 48 hrs by sulforhodamine B assay; assay type: functional; conditions: MDA-MB-435, 48 h, read-out: Activity
T47D [8] = assay: Growth inhibition of human T47D cells assessed as cell growth at 10 uM after 48 hrs by sulforhodamine B assay; assay type: functional; conditions: read-out: Activity
SK-MEL-28 = assay: Growth inhibition of human SK-MEL-28 cells assessed as cell growth at 10 uM after 48 hrs by sulforhodamine B assay; assay type: functional; conditions: SK-MEL-28, 48 h, read-out: Activity
COLO 205 = assay: Growth inhibition of human COLO205 cells after 48 hrs by sulforhodamine B assay; assay type: functional; conditions: COLO 205, 48 h
MDA-MB-231 [9] = assay: Growth inhibition of human MDA-MB-231 cells assessed as cell growth at 10 uM after 48 hrs by sulforhodamine B assay; assay type: functional; conditions: MDA-MB-231, 48 h, read-out: Activity
[10] = Growth inhibition of human NCI-ADR-RES cells assessed as cell growth at 10 uM after 48 hrs by sulforhodamine B assay; assay type: functional; conditions: read-out: Activity
A498 = assay: Growth inhibition of human A498 cells assessed as cell growth at 10 uM after 48 hrs by sulforhodamine B assay; assay type: functional; conditions: A498, 48 h, read-out: Activity
MDA-MB-435 [11] = assay: Growth inhibition of human MDA-MB-435 cells after 48 hrs by sulforhodamine B assay; assay type: functional, cell-based; conditions: MDA-MB-435, 48 h; for CC50: read-out: LC50 (the source's name)
TK-10 [12] = assay: Growth inhibition of human TK10 cells assessed as cell growth at 10 uM after 48 hrs by sulforhodamine B assay; assay type: functional; conditions: TK-10, 48 h, read-out: Activity
Malme-3M = assay: Growth inhibition of human MALME-3M cells after 48 hrs by sulforhodamine B assay; assay type: functional
HOP-92 = assay: Growth inhibition of human HOP92 cells assessed as cell growth at 10 uM after 48 hrs by sulforhodamine B assay; assay type: functional; conditions: HOP-92, 48 h, read-out: Activity
CAKI-1 = assay: Growth inhibition of human CAKI-1 cells after 48 hrs by sulforhodamine B assay; assay type: functional; conditions: CAKI-1, 48 h; for CC50: read-out: LC50 (the source's name)
HCT-15 [13] = assay: Growth inhibition of human HCT15 cells after 48 hrs by sulforhodamine B assay; assay type: functional; conditions: HCT-15, 48 h
TK-10 [14] = assay: Growth inhibition of human TK10 cells after 48 hrs by sulforhodamine B assay; assay type: functional; conditions: TK-10, 48 h; for CC50: read-out: LC50 (the source's name)
A549 = assay: Growth inhibition of human A549/ATCC cells assessed as cell growth at 10 uM after 48 hrs by sulforhodamine B assay; assay type: functional; conditions: A549, 48 h, read-out: Activity
PC-3 = assay: Growth inhibition of human PC3 cells after 48 hrs by sulforhodamine B assay; assay type: functional, cell-based; conditions: PC-3, 48 h; for CC50: read-out: LC50 (the source's name)
SF-295 = assay: Growth inhibition of human SF295 cells after 48 hrs by sulforhodamine B assay; assay type: functional, cell-based; conditions: SF-295, 48 h; for CC50: read-out: LC50 (the source's name)
SN12C = assay: Growth inhibition of human SN12C cells after 48 hrs by sulforhodamine B assay; assay type: functional; conditions: for CC50: read-out: LC50 (the source's name)
HOP-62 = assay: Growth inhibition of human HOP62 cells after 48 hrs by sulforhodamine B assay; assay type: functional; conditions: HOP-62, 48 h; for CC50: read-out: LC50 (the source's name)
T47D [15] = assay: Growth inhibition of human T47D cells after 48 hrs by sulforhodamine B assay; assay type: functional; conditions: for CC50: read-out: LC50 (the source's name)
SW-620 = assay: Growth inhibition of human SW620 cells assessed as cell growth at 10 uM after 48 hrs by sulforhodamine B assay; assay type: functional; conditions: SW-620, 48 h, read-out: Activity
MDA-MB-231 [16] = assay: Growth inhibition of human MDA-MB-231 cells after 48 hrs by sulforhodamine B assay; assay type: functional; conditions: MDA-MB-231, 48 h

COc1cc(-c2nn(-c3cccc(NC(=O)c4ccccc4)c3)cc2-c2ccncc2)ccc1Cl
growth at 10 µM (SF-539): -15%
GI50 (HCT-116): 0.5 µM
TGI (HCT-116): > 100 µM
CC50 (HCT-116): > 100 µM
growth at 10 µM (RPMI-8226): 9.39%
GI50 (MOLT-4 [1]): 0.701 µM
TGI (MOLT-4 [1]): > 100 µM
CC50 (MOLT-4 [1]): > 100 µM
growth at 10 µM (MOLT-4 [2]): 0.66%
GI50 [3]: 0.448 µM
TGI [3]: > 100 µM
CC50 [3]: > 100 µM
growth at 10 µM [4]: 20.1%
growth at 10 µM (HCT-15 [5]): 19.2%
growth at 10 µM (MDA-MB-468): -19.7%
GI50 (NCI-H226): 2.35 µM
TGI (NCI-H226): > 100 µM
CC50 (NCI-H226): > 100 µM
GI50 [6]: 1.11 µM
TGI [6]: > 100 µM
CC50 [6]: > 100 µM
growth at 10 µM (HL-60(TB)): -18.8%
growth at 10 µM (MDA-MB-435 [7]): -57.9%
growth at 10 µM (T47D [8]): 21.8%
growth at 10 µM (SK-MEL-28): 34.4%
GI50 (COLO 205): 0.522 µM
LC50 (concentration killing 50% of cells) (COLO 205): 68.4 µM
TGI (COLO 205): 3.23 µM
growth at 10 µM (MDA-MB-231 [9]): 5.8%
growth at 10 µM [10]: 0.34%
growth at 10 µM (A498): -23.2%
GI50 (MDA-MB-435 [11]): 0.189 µM
pIC50 (MDA-MB-435 [11]): 6.72
TGI (MDA-MB-435 [11]): 0.551 µM
CC50 (MDA-MB-435 [11]): 12.3 µM
growth at 10 µM (TK-10 [12]): 31%
GI50 (Malme-3M): 0.537 µM
LC50 (concentration killing 50% of starting cells) (Malme-3M): > 100 µM
TGI (Malme-3M): > 100 µM
growth at 10 µM (HOP-92): 9.19%
GI50 (CAKI-1): 1.16 µM
TGI (CAKI-1): > 100 µM
CC50 (CAKI-1): > 100 µM
GI50 (HCT-15 [13]): 0.654 µM
LC50 (HCT-15 [13]): > 100 µM
TGI (HCT-15 [13]): > 100 µM
GI50 (TK-10 [14]): 7 µM
TGI (TK-10 [14]): > 100 µM
CC50 (TK-10 [14]): > 100 µM
growth at 10 µM (A549): 4.81%
GI50 (PC-3): 0.426 µM
pIC50 (PC-3): 6.37
TGI (PC-3): > 100 µM
CC50 (PC-3): > 100 µM
GI50 (SF-295): 0.337 µM
pIC50 (SF-295): 6.47
TGI (SF-295): 2.26 µM
CC50 (SF-295): > 100 µM
GI50 (SN12C): 2.95 µM
TGI (SN12C): > 100 µM
CC50 (SN12C): > 100 µM
GI50 (HOP-62): 8.34 µM
TGI (HOP-62): > 100 µM
CC50 (HOP-62): > 100 µM
GI50 (T47D [15]): 1.9 µM
TGI (T47D [15]): > 100 µM
CC50 (T47D [15]): > 100 µM
growth at 10 µM (SW-620): 18.4%
GI50 (MDA-MB-231 [16]): 1.17 µM
LC50 (MDA-MB-231 [16]): > 100 µM
TGI (MDA-MB-231 [16]): 13.7 µM

COc1cc(-c2nn(-c3cccc(NC(=O)c4ccc(Cl)c(C(F)(F)F)c4)c3)cc2-c2ccncc2)ccc1Cl
growth at 10 µM (SF-539): 33%
GI50 (HCT-116): 2.49 µM
TGI (HCT-116): > 32.5 µM
CC50 (HCT-116): > 32.5 µM
growth at 10 µM (RPMI-8226): 25.4%
GI50 (MOLT-4 [1]): 5.24 µM
TGI (MOLT-4 [1]): > 32.5 µM
CC50 (MOLT-4 [1]): > 32.5 µM
growth at 10 µM (MOLT-4 [2]): 20.3%
GI50 [3]: 1.29 µM
TGI [3]: 11.2 µM
CC50 [3]: > 32.5 µM
growth at 10 µM [4]: -8.08%
growth at 10 µM (HCT-15 [5]): 51.7%
growth at 10 µM (MDA-MB-468): 54.4%
GI50 (NCI-H226): 5.9 µM
TGI (NCI-H226): > 32.5 µM
CC50 (NCI-H226): > 32.5 µM
GI50 [6]: 2.17 µM
TGI [6]: > 32.5 µM
CC50 [6]: > 32.5 µM
growth at 10 µM (HL-60(TB)): 3.23%
growth at 10 µM (MDA-MB-435 [7]): -26.8%
growth at 10 µM (T47D [8]): 26.2%
growth at 10 µM (SK-MEL-28): 41.6%
GI50 (COLO 205): 6.14 µM
LC50 (concentration killing 50% of cells) (COLO 205): > 32.5 µM
TGI (COLO 205): 23.3 µM
growth at 10 µM (MDA-MB-231 [9]): 25.8%
growth at 10 µM [10]: 13.4%
growth at 10 µM (A498): 11.8%
GI50 (MDA-MB-435 [11]): 0.664 µM
pIC50 (MDA-MB-435 [11]): 6.18
TGI (MDA-MB-435 [11]): 1.74 µM
CC50 (MDA-MB-435 [11]): 24.7 µM
growth at 10 µM (TK-10 [12]): 69.5%
GI50 (Malme-3M): 1.18 µM
LC50 (concentration killing 50% of starting cells) (Malme-3M): > 32.5 µM
TGI (Malme-3M): 19.7 µM
growth at 10 µM (HOP-92): 22.5%
GI50 (CAKI-1): 2.3 µM
TGI (CAKI-1): > 32.5 µM
CC50 (CAKI-1): > 32.5 µM
GI50 (HCT-15 [13]): 3.25 µM
LC50 (HCT-15 [13]): > 32.5 µM
TGI (HCT-15 [13]): > 32.5 µM
GI50 (TK-10 [14]): 20.4 µM
TGI (TK-10 [14]): > 32.5 µM
CC50 (TK-10 [14]): > 32.5 µM
growth at 10 µM (A549): 23.3%
GI50 (PC-3): 1.29 µM
pIC50 (PC-3): 5.89
TGI (PC-3): > 32.5 µM
CC50 (PC-3): > 32.5 µM
GI50 (SF-295): 1.38 µM
pIC50 (SF-295): 5.86
TGI (SF-295): 17.3 µM
CC50 (SF-295): > 32.5 µM
GI50 (SN12C): 11.2 µM
TGI (SN12C): > 32.5 µM
CC50 (SN12C): > 32.5 µM
GI50 (HOP-62): 13.1 µM
TGI (HOP-62): > 32.5 µM
CC50 (HOP-62): > 32.5 µM
GI50 (T47D [15]): 2.05 µM
TGI (T47D [15]): > 32.5 µM
CC50 (T47D [15]): > 32.5 µM
growth at 10 µM (SW-620): 36.1%
GI50 (MDA-MB-231 [16]): 1.2 µM
LC50 (MDA-MB-231 [16]): > 32.5 µM
TGI (MDA-MB-231 [16]): > 32.5 µM
